Entries after “also recorded” stand apart in the source; their conditions may differ.
Columns and labels:
[1] = Pharmacokinetics of fluorocoxib D in research dogs, plasma HPLC; type: in vivo, dog
Description: (§1) The animal studies were performed in the accordance with the University of Tennessee Institutional Animal Care and Use Committee (UT IACUC)-approved protocols and in an accordance with NIH guidelines. Individually housed research healthy female beagle dogs (Covance Research Product) with weights of 6.7 to 10.3 kg were used to assess the safety and pharmacokinetic parameters of fluorocoxib D administrated a dose of 1 mg/kg over 20 min intravenously (i.v.).
To determine the pharmacokinetic parameters of fluorocoxib D ( 1 mg/kg , i.v.) in dogs, blood (2 to 3 ml) was collected from the jugular vein into EDTA-treated tubes at 0, 0.5, 1, 2, 4, 8, and 24 h after compound administration. The blood was centrifuged within 20 min of sample collection. Plasma was removed and stored at −80°C until further HPLC analysis.
Levels of fluorocoxib D were determined in collected canine plasma samples using HPLC at Vanderbilt University (JU). The frozen samples were thawed and extracted with acetonitrile. The organic layer was collected, dried, and reconstituted in methanol and water. The unknown samples were quantitated against a 5-point standard curve, which was prepared by mixing known quantities of fluorocoxib D with commercial canine plasma (Sigma-Aldrich) and subjecting the resulting samples to liquid–liquid extraction and HPLC. Samples were analyzed using a reverse-phase column (C18, 5×0.2 cm , Phenomenex) with gradient elution. The mobile phase component A was water, and B was acetonitrile, each containing 0.1% acetic acid. The gradient was 50% B to 90% B over 5 min, followed by a brief hold and return to initial conditions. The flow rate was 0.3 ml/min .
The pharmacokinetic parameters for fluorocoxib D were estimated from the plasma concentration-time data by a nonlinear mixed effects approach, as implemented with Monolix 4.1.2 (Lixoft S.A.S., Orsay, France). This approach allowed analyzing data from all animals at the same time and was ideal for relatively sparse datasets like the one used in this study. The plasma clearance (Cl), representing the overall ability of the body to eliminate fluorocoxib D, was determined by scaling its elimination rate (amount per time) by the corresponding plasma concentration level. The volume of distribution (Vd) was defined as the ratio of the total amount of fluorocoxib D in the body to the blood plasma concentration. The Cl and Vd were estimated directly from the study population data. The peak concentration in plasma ( Cmax ) and the following pharmacokinetic parameters were obtained by averaging the corresponding post-hoc Bayesian estimates. The individual partial areas under the curve between times 0 and 8 h ( AUC0−8 ) and the AUC0−∞ with extrapolation to infinity were calculated using the log-linear trapezoidal rule, as implemented with WinNonlin 5.1 (Pharsight, Mountain View, California). The mean residence time (MRT) value was determined as the ratio of the area under the first moment curve over AUC0−∞ . The elimination rate constant was determined as the slope obtained by linear regression of the terminal log-linear portion of the concentration versus time curve, and the elimination half-life ( t1/2 ) was then calculated. The plasma concentration graphs were generated using calculated averaged plasma concentrations of fluorocoxib D from six dogs after 1 mg/kg i.v. of fluorocoxib D administration performed over 20 min.

[2] = system: COX1; settings: cited from earlier work
[3] = Pilot safety study: physical examination and adverse events; type: in vivo, dog
Description: as §1
For single dose safety evaluation studies, we administrated fluorocoxib D at 1 mg/kg , i.v. using a preplaced cephalic or saphenous vein catheter over 20 min to six healthy research dogs following protocol as described previously.[38] Briefly, physical examinations for signs of potential drug toxicity were performed before, during, and daily for 3 days after fluorocoxib D administration. Physical assessment included auscultation of heart and lungs, abdominal palpation, body temperature, appetite, attitude, activity levels monitoring, and other health-related events. Hypersensitivity was evaluated by direct observation of each dog during treatment for clinical signs of an allergic reaction (facial swelling, flushing, urticaria, dyspnea, scratching, and changes of heart rates). […] Laboratory evaluations of blood and urine were carried out before and 3 days after fluorocoxib D administration to monitor signs of toxicity. […] The CBC evaluated total white blood cells (WBC) and hematocrit (HCT), in addition to absolute numbers of neutrophils, lymphocytes, monocytes, eosinophils, and platelets. The plasma chemistry profile evaluated blood urea nitrogen (BUN), creatinine, proteins (albumin, globulins, and total proteins), alanine aminotransferase (ALT), total bilirubin, glucose, and electrolytes. The complete urinalysis evaluated urine proteins, glucose, and ketones; a sediment examination and urine-specific gravity were validated as well for any possible signs of renal toxicity of fluorocoxib D. All laboratory tests were carried out at the Veterinary Medical Center of the University of Tennessee in Knoxville.

[4] = female, beagle, dog, plasma, iv, 1 mg/kg i.v., six research dogs, mean ± S.D.

With `COc1ccc2c(c1)c(CC(=O)NCCCCNC(=O)c1ccc(C3=c4cc5c6c(c4Oc4c3cc3c7c4CCCN7CCC3)CCC[N+]=6CCC5)cc1)c(C)n2C(=O)c1ccc(Cl)cc1` [Fluorocoxib D, N -[(rhodamin-X-yl)but-4-yl]-2-[1-(4-chlorobenzoyl)-5-methoxy-2-methyl-1H-indol-3-yl]acetamide] the “Peak concentration in plasma” value ([1]; 1 mg/kg i.v. over 20 min, dogs, HPLC) was 114.8 ± 50.5 ng/mL, the “Detection in plasma after 4 h following administration” value ([1]; 1 mg/kg i.v., dogs, HPLC) was “No fluorocoxib D was detected; also recorded: No detectable levels” and the Tmax ([1]; female, beagle, dog, plasma, iv, 1 mg/kg i.v. over 20 min, dogs, read-out: Time of peak plasma concentration after administration) was 30 min. The Cmax ([1]; female, beagle, dog, plasma, iv, 1 mg/kg i.v. over 20 min, six research dogs, mean ± S.D.) was 110 ± 50 ng/mL, the AUC(0-inf) [1, 4] was 150 ± 50 ng·h/mL and the MRT [1, 4] was 87.6 ± 25.2 min. The AUC(0-t) ([1]; female, beagle, dog, plasma, iv, 1 mg/kg i.v., six research dogs, mean ± S.D., read-out: AUC0-8) was 110 ± 40 ng·h/mL, the clearance ([1]; female, beagle, dog, plasma, iv, 1 mg/kg i.v., six research dogs, mean ± S.D., read-out: Cl (clearance) (converted)) was 123 mL/min/kg and the Vd ([1]; female, beagle, dog, plasma, iv, 1 mg/kg i.v., six research dogs, mean ± S.D., read-out: Vdarea (volume of distribution)) was 9.97 ± 4.76 L/kg. For the same compound, the half-life ([1]; female, beagle, dog, plasma, iv, 1 mg/kg i.v., six research dogs, mean ± S.D., read-out: t1/2 (terminal/elimination half-life) (converted)) was 54.6 ± 17.4 min, the IC50 [2] was 4 µM and the “Adverse events including diarrhea, vomiting, nausea, and loss of appetite” value ([3]; 1 mg/kg i.v. over 20 min, six research dogs) was “not observed”. The “Overall safety / toxicity of single dose” value ([3]; 1 mg/kg i.v. over 20 min, six research dogs, 3 days observation) was “No evidence of toxicity; also recorded: safe dose; also recorded: no clinically relevant adverse events” and the Salivation during administration ([3]; one dog of six, during 20 min i.v. administration, attributed to DMSO solvent) was “increased salivation”.

From article PMC7456637, “Pharmacokinetic characterization of fluorocoxib D, a cyclooxygenase-2-targeted optical imaging agent for detection of cancer” (Journal of Biomedical Optics, 2020)
